Counter-ions that a name gives are not always drawn.
Columns and labels:
[1] = molecular target: T1, hNav1.7 (Homo sapiens, UniProt Q15858); assay: Tritiated compound binding (LBA) to membranes from cells expressing hNav1.7 and the β1 subunit, competitive binding; conditions: competitive binding vs 100 pM [3H]compound, 18 h, room temperature, membranes with hNav1.7 and β1 subunit
T1 construct: expressed in transfected cells
Experimental: Tritiated Compound Binding to Membranes
Isolated from Cells that Heterologously Express hNav1.7 and the β1 Subunit
Preparation of membranes containing recombinantly expressed sodium channels: Frozen recombinant cell pellets were thawed on ice and diluted to 4 times the cell pellet weight with ice cold 50 mM Tris HCl, pH 7.4 buffer. The cell suspensions were homogenized on ice using a motorized glass dounce homogeniser. […] The supernatants were collected and centrifuged at 10000×g at 4° C. for 50 min. The pellets were then re-suspended in 100 mM NaCl, 20 mM Tris HCl, pH 7.4 buffer containing 1% v/v protease inhibitors (Calbiochem) and re-homogenized on ice. The homogenized membranes were then processed through a syringe equipped with a 26 gauge needle. Protein concentrations were determined by Bradford Assay and the membranes were stored at −80° C.
Saturation experiments. A representative compound of formula (I) having a methyl group was tritiated. Three tritiums were incorporated in place of methyl hydrogens to generate [^3H]compound. Binding of this radioligand was performed in 5 mL borosilicate glass test tubes at room temperature. Binding was initiated by adding membranes to increasing concentrations of [^3H]compound in 100 mM NaCl, 20 mM Tris HCl, pH 7.4 buffer containing 0.01% w/v bovine serum albumin (BSA) for 18 h. Non-specific binding was determined in the presence of 1 μM unlabeled compound. After 18 h, the reactants were filtered through GF/C glass fiber filters presoaked in 0.5% w/v polyethylene imine. […] [^3H]compound bound to filters was quantified by liquid scintillation counting.
Binding reactions were performed in 96-well polypropylene plates at room temperature for 18 h. In 360 μL, membranes were incubated with 100 pM [^3H]compound and increasing concentrations of Test Compound. Non-specific binding was defined in the presence of 1 μM unlabeled compound. Reactions were transferred and filtered through 96-well glass fiber/C filter plates presoaked with 0.5% polyethylene imine. […] Bound radioactivity was determined by liquid scintillation counting.
Data Analysis: For saturation experiments, non-specific binding was subtracted from total binding to provide specific binding and these values were recalculated in terms of pmol ligand bound per mg protein. Saturation curves were constructed and dissociation constants were calculated using the single site ligand binding model: Beq=(Bmax*X)/(X+Kd), where Beq is the amount of ligand bound at equilibrium, Bmax is the maximum receptor density, Kd is the dissociation constant for the ligand, and X is the free ligand concentration. For competition studies percent inhibition was determined and IC50 values were calculated using a 4 parameter logistic model (% inhibition=(A+((B−A)/(1+((x/C)^D)))) using XLfit, where A and B are the maximal and minimum inhibition respectively, C is the IC50 concentration and D is the (Hill) slope.

[2] = molecular target: T2, human NaV1.7 (Homo sapiens, UniProt Q15858); assay: Patch voltage clamp electrophysiology assay (EP), NaV1.7; format: cell-based; conditions: HEK-293 cells stably expressing NaV1.7 with β1 subunit; whole-cell patch clamp, membrane potential −60 mV (inactivated state)
T2 construct: permanently transfected with an expression vector containing the full-length cDNA coding for the desired human sodium channel α-subunit; expressed in transfected cells; host or cells: HEK-293
Experimental: The following patch voltage clamp electrophysiology studies were performed on representative compounds of the invention using human embryonic kidney cells (HEK), permanently transfected with an expression vector containing the full-length cDNA coding for the desired human sodium channel α-subunit, grown in culture media containing 10% FBS, 1% PSG, and 0.5 mg/mL G418 at 37° C. with 5% CO2. […] NaV1.7 and NaV1.5 cDNAs (NM_002977 and AC137587; SCN5A, respectively) were stably expressed in HEK-293 cells. The β1 subunit was coexpressed in both the NaV1.7 and NaV1.5 cell lines.
Sodium currents were measured using the patch clamp technique in the whole-cell configuration using either a PatchXpress automated voltage clamp or manually using an Axopatch 200B (Axon Instruments) or Model 2400 (A-M systems) amplifier. The manual voltage clamp protocol was as follows: Borosilicate glass micropipettes were fire-polished to a tip diameter yielding a resistance of 2-4 Mohms in the working solutions. The pipette was filled with a solution comprised of: 5 mM NaCl, 10 mM CsCl, 120 mM CsF, 0.1 mM CaCl2, 2 mM MgCl2, 10 mM HEPES, 10 mM EGTA; and adjusted to pH 7.2 with CsOH. The external solution had the following composition: 140 mM NaCl, 5 mM KCl, 2 mM CaCl2, 1 mM MgCl2, 10 mM HEPES; and adjusted to pH 7.4 with NaOH. In some studies, the external sodium was reduced by equimolar replacement with choline. Osmolarity in the CsF internal and NaCl external solutions was adjusted to 300 mOsm/kg and 310 mOsm/kg with glucose, respectively. All recordings were performed at ambient temperature in a bath chamber with a volume of 150 μL. Control sodium currents were measured in 0.5% DMSO. Controls and representative compounds of the invention were applied to the recording chamber through a 4-pinch or 8-pinch valve bath perfusion system manufactured by ALA Scientific Instruments.
Series resistance compensation was applied (60-80%). […] All statistics in this study are given as mean±SD.
The membrane potential was maintained at a voltage where inactivation of the channel is complete (which was −60 mV for both NaV1.7 and NaV1.5). The voltage is then stepped back to a very negative (Vhold=[…]) voltage for 20 ms and then a test pulse is applied to quantify the compound block. […] The percent decrease in sodium current following wash-on of compound was taken as the percent block of sodium channels.

T1 sequence (Q15858 1-1977 isoform Q15858-3): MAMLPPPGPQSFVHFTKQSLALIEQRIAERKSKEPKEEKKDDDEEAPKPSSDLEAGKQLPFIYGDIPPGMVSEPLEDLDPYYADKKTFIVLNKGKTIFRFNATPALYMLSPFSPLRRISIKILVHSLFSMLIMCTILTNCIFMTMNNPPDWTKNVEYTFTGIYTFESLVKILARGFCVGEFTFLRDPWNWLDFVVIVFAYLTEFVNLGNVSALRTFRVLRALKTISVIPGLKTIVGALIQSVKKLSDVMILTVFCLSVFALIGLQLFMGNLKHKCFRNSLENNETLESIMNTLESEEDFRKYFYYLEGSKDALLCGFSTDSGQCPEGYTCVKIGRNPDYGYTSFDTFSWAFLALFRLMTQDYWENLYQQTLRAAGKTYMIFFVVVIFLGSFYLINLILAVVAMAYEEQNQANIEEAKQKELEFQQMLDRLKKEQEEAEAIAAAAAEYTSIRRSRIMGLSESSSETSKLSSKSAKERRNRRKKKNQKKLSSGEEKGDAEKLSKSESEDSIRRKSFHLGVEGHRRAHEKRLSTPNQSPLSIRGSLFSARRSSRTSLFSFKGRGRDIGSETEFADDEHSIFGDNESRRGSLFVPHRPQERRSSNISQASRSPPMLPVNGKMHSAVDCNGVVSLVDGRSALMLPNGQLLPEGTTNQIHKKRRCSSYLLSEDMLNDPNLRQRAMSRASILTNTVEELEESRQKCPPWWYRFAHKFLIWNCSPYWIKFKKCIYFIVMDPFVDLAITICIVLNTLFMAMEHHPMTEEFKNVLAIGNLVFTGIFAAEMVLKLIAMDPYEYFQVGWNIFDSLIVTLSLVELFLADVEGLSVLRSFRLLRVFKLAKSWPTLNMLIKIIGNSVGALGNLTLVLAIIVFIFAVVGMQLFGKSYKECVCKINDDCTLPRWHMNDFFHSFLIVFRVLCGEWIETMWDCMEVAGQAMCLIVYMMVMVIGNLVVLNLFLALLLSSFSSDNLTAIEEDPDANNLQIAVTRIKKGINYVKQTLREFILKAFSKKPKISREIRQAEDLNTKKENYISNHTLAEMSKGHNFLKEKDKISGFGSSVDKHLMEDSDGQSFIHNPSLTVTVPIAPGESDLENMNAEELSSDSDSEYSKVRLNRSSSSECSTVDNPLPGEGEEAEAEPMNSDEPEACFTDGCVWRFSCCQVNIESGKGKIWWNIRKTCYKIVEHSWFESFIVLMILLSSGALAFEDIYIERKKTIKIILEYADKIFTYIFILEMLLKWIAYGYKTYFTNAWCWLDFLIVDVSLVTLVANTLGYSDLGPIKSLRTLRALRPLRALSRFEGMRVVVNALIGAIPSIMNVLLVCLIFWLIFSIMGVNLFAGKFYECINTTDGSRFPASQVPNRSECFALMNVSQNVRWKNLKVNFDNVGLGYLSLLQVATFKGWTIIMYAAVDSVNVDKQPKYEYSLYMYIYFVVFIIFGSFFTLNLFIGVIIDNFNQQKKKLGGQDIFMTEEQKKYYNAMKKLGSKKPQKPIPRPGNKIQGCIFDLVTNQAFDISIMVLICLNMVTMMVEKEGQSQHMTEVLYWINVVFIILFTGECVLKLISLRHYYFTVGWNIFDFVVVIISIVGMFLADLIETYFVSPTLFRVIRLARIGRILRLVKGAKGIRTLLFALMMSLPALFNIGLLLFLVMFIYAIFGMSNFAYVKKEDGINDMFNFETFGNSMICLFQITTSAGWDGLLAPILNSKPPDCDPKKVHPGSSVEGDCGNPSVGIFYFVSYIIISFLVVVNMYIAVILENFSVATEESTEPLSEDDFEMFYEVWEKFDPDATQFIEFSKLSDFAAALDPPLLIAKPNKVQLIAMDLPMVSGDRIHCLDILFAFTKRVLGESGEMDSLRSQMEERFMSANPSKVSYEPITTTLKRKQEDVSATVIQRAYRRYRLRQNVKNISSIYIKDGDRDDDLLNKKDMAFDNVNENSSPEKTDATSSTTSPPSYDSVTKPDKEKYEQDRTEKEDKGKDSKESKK
T1 sequence (Q07699 19-218 partner): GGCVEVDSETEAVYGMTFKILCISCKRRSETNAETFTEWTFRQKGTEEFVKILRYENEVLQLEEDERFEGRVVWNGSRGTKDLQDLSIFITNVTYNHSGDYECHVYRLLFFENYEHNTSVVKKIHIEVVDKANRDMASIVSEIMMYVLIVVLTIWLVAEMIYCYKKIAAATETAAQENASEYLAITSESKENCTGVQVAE
T2 sequence (Q15858 1-1977 isoform Q15858-3): as the sequence (Q15858 1-1977 isoform Q15858-3) above
T2 sequence (Q07699 19-218 partner): as the sequence (Q07699 19-218 partner) above

Structure (SMILES)	IC50 [1] [µM]	IC50 [2] [µM]
O=C(O)[C@@H]1CCCN1C(=O)c1cc(C2CC2)c(OC2C3CC4CC2CC(Cl)(C4)C3)cc1F (single isomer, unassigned) [Example 82]	1.1	1.8
O=C(O)[C@@H]1CCCN1C(=O)c1cc(C2CC2)c(OCC2CCN(Cc3nc(-c4ccccc4Cl)no3)CC2)cc1F [Example 29, (S)-1-(4-((1-((3-(2-chlorophenyl)-1,2,4-oxadiazol-5-yl)methyl)piperidin-4-yl)methoxy)-5-cyclopropyl-2-fluorobenzoyl)pyrrolidine-2-carboxylic acid trifluoroacetic acid salt]	0.629	–
O=C(O)[C@@H]1CCCN1C(=O)c1cc(Cl)c(COc2ccc(OC(F)(F)F)c(Cl)c2)cc1F [Example 30, (S)-1-(5-chloro-4-((3-chloro-4-(trifluoromethoxy)phenoxy)methyl)-2-fluorobenzoyl)pyrrolidine-2-carboxylic acid]	0.345	–
N#CC1(COc2cc(F)c(C(=O)N3CCC[C@H]3C(=O)O)cc2Cl)C2CC3CC(C2)CC1C3 (stereo partly drawn) [Example 31, (S)-1-(5-chloro-4-(((1S,3S,5S,7S)-2-cyanoadamantan-2-yl)methoxy)-2-fluorobenzoyl)pyrrolidine-2-carboxylic acid]	> 10	–
N#CC1(COc2cc(F)c(C(=O)N3CCC[C@H]3C(=O)O)cc2C2CC2)C2CC3CC(C2)CC1C3 (stereo partly drawn) [Example 32, (S)-1-(4-(((1S,3S,5S,7S)-2-cyanoadamantan-2-yl)methoxy)-5-cyclopropyl-2-fluorobenzoyl)pyrrolidine-2-carboxylic acid]	1.54	–
CC(C)(C)OC(=O)N1CC(n2nccc2-c2cc(Cl)ccc2Oc2cc(F)c(C(=O)N3CCC[C@H]3C(=O)O)cc2F)C1 [Example 33, (S)-1-(4-(2-(1-(1-(tert-butoxycarbonyl)azetidin-3-yl)-1H-pyrazol-5-yl)-4-chlorophenoxy)-2,5-difluorobenzoyl)pyrrolidine-2-carboxylic acid]	> 10	–
O=C(O)[C@@H]1CCCN1C(=O)c1cc(F)c(Oc2ccc(Cl)cc2-c2ccnn2C2CNC2)cc1F [Example 34, (S)-1-(4-(2-(1-(azetidin-3-yl)-1H-pyrazol-5-yl)-4-chlorophenoxy)-2,5-difluorobenzoyl)pyrrolidine-2-carboxylic acid trifluoroacetic acid salt]	> 10	–
O=C(O)CNC(=O)c1cc(C2CC2)c(OCC23CC4CC(CC(C4)C2)C3)cc1F [Example 35, 2-(4-(adamantan-1-ylmethoxy)-5-cyclopropyl-2-fluorobenzamido) acetic acid]	7.83	–
O=C(NC1(C(=O)O)CC1)c1cc(Cl)c(Oc2ccc(OC(F)(F)F)c(Cl)c2)cc1F [Example 36, 1-(5-chloro-4-(3-chloro-4-(trifluoromethoxy)phenoxy)-2-fluorobenzamido)-cyclopropanecarboxylic acid]	> 10	–
O=C(O)[C@@H]1CCCN1C(=O)c1cc(Cl)c(Oc2ccc(OC(F)(F)F)c(Cl)c2)cc1F [Example 37, (S)-1-(5-chloro-4-(3-chloro-4-(trifluoromethoxy)phenoxy)-2-fluorobenzoyl)-pyrrolidine-2-carboxylic acid]	5.23	–
O=C(O)[C@@H]1CCCN1C(=O)c1cc(C2CC2)c(O[C@@H]2CCCN(Cc3ccc(F)cc3Cl)C2)cc1F [Example 38, (S)-1-(4-(((R)-1-(2-chloro-4-fluorobenzyl)piperidin-3-yl)oxy)-5-cyclopropyl-2-fluorobenzoyl)pyrrolidine-2-carboxylic acid trifluoroacetic acid salt]	0.152	–
CC(c1cc(Cl)cc(Cl)c1)N1CCC(COc2cc(F)c(C(=O)N3CCC[C@H]3C(=O)O)cc2C2CC2)CC1 (stereo partly drawn) [Example 39, (2S)-1-(5-cyclopropyl-4-((1-(1-(3,5-dichlorophenyl)ethyl)piperidin-4-yl)methoxy)-2-fluorobenzoyl)pyrrolidine-2-carboxylic acid trifluoroacetic acid salt]	0.0436	–
Cc1cc(C(=O)N2CCC[C@H]2C(=O)O)c(F)cc1OCC12CC3CC(CC(C3)C1)C2 [Example 40, (S)-1-(4-(adamantan-1-ylmethoxy)-2-fluoro-5-methylbenzoyl)pyrrolidine-2-carboxylic acid]	0.452	–
O=C(O)[C@@H]1CCCN1C(=O)c1cc(Cl)c(OCC23CC4CC(CC(C4)C2)C3)cc1F [Example 41, (S)-1-(4-(adamantan-1-ylmethoxy)-5-chloro-2-fluorobenzoyl)pyrrolidine-2-carboxylic acid]	0.64	–
C[C@]1(COc2cc(F)c(C(=O)N3CCC[C@H]3C(=O)O)cc2C2CC2)CC[C@@H](C(F)(F)F)CC1 [Example 42, cis-(S)-1-(5-cyclopropyl-2-fluoro-4-((1-methyl-4-(trifluoromethyl)-cyclohexyl)methoxy)benzoyl)pyrrolidine-2-carboxylic acid]	0.231	–
CC[C@H](C)[C@H](NC(=O)c1cc(C2CC2)c(OCC23CC4CC(CC(C4)C2)C3)cc1F)C(=O)O [Example 43, (2S,3S)-2-(4-(adamantan-1-ylmethoxy)-5-cyclopropyl-2-fluorobenzamido)-3-methylpentanoic acid]	0.0823	–
O=C(O)[C@@H]1CCCN1C(=O)c1cc(Cl)c(OC[C@@H]2C[C@@H]3[C@H](C2)C3(F)F)cc1F [Example 44]	≥ 10	–
CN(CC(=O)O)C(=O)c1cc(C2CC2)c(OCC23CC4CC(CC(C4)C2)C3)cc1F [Example 45, 2-(4-(adamantan-1-ylmethoxy)-5-cyclopropyl-2-fluoro-N-methylbenzamido)acetic acid]	8.4	11.7
O=C(O)[C@@H]1C[C@H](O)CN1C(=O)c1cc(C2CC2)c(OCC23CC4CC(CC(C4)C2)C3)cc1F [Example 46, (2S,4S)-1-[4-(1-adamantylmethoxy)-5-cyclopropyl-2-fluoro-benzoyl]-4-hydroxy-pyrrolidine-2-carboxylic acid]	0.15	0.87
O=C(O)[C@H]1C[C@@H](O)CN1C(=O)c1cc(C2CC2)c(OCC23CC4CC(CC(C4)C2)C3)cc1F [Example 47, (2R,4R)-1-[4-(1-adamantylmethoxy)-5-cyclopropyl-2-fluoro-benzoyl]-4-hydroxy-pyrrolidine-2-carboxylic acid]	≥ 10	16
O=C(O)[C@@H]1CCCN1C(=O)c1cc(Cl)c(Oc2cnc(OCC(F)(F)F)c(Cl)c2)cc1F [Example 217, (S)-1-(5-Chloro-4-((5-chloro-6-(2,2,2-trifluoroethoxy)pyridin-3-yl)oxy)-2-fluorobenzoyl)pyrrolidine-2-carboxylic acid trifluoroacetate]	2.7	–

Source: patent publication US10125098B2, “Therapeutic compounds and methods of use thereof” (GENENTECH, INC., priority 2014, dated 2018)
